Columns and labels:
[1] = tested on: MDA-MB-231 breast cancer cells; assay: Cell viability with doxorubicin (CellTiter-Glo); format: cell-based; settings: co-treated with increasing concentrations of doxorubicin, 72 hours
[2] = tested on: cardiomyocytes derived from human induced pluripotent stem cells; assay: Doxorubicin-induced apoptosis (TUNEL), 48 hours; format: cell-based; settings: 1 μM doxorubicin, VIT 115 μM, Dex 160 μM, AMB 0.76 μM, NAC 50 μM, KAE 17 μM, MES 10 μM
Procedure: Following treatment, the samples were incubated with a TUNEL dye to indicate apoptosis-positive cells, and a second dye to identify cell nuclei.

[3] = tested on: human induced pluripotent stem cell-derived cardiomyocytes; assay: Long-term mitochondrial health (TMRM), 7 days; format: cell-based; settings: 1 μM doxorubicin alone or with dexrazoxane or vitexin
Procedure: Following treatment, the samples were incubated with a tetramethylrhodamine methyl ester (TMRM) dye to indicate mitochondrial health. […] Representative images are presented for each sample, wherein loss of TMRM signal represents mitochondrial toxicity.

[4] = tested on: human induced pluripotent stem cell-derived cardiomyocytes; assay: Electrophysiological activity with doxorubicin (active electrodes, MEA); format: cell-based; settings: for decrease in the number of active electrodes: 24 hours
Procedure: Samples were either mock-treated with 0.1% DMSO, treated with 1 μM doxorubicin, or co-treated with 1 μM doxorubicin and various concentrations of vitexin (e.g., 11.6 μM, 37 μM, or 116 μM). Following treatment, the percentage of active electrodes in each sample was measured for 72 hours. Percentage of active electrodes was quantified and graphed in a time course (FIG. 28A). The average number of active electrodes per well was quantified and graphed at 30 hours after the treatment (FIG. 28B, n=6, standard deviation is shown as error bars).

A549 cells (lung cancer) = assay: Cell viability with doxorubicin (CellTiter-Glo); format: cell-based; settings: co-treated with increasing concentrations of doxorubicin, 72 hours
Procedure: A549 cells (lung cancer) were cultured for 1 day before performing experiments. […] XLFit was used for curve fitting.

[5] = tested on: induced pluripotent stem cell-derived cardiomyocytes; assay: Acute toxicity on electrophysiology (MEA beat period, field potential duration); format: cell-based; settings: lower drug concentration, at least 20 minutes
Procedure: Samples were either mock-treated with 0.1% DMSO, or treated with increasing concentrations of the indicated drug for at least 20 minutes. Cardiomyocytes were treated with the hERG potassium channel blocker E4031 as a control. Following treatment, the beat period and field potential duration (FPD) were measured in each sample using the MEA.

[6] = tested on: induced pluripotent stem cell-derived cardiomyocytes; assay: Long term toxicity on electrophysiology (active electrodes, MEA); format: cell-based; settings: various concentrations, at least 5 days
Procedure: Samples were either mock-treated with 0.1% DMSO, or treated with various concentrations of the indicated drug. Following treatment, the percentage of active electrodes in each sample was measured for at least 5 days. Percentage of active electrodes was quantified and graphed in a time course.

patient = assay: Patient treatment examples (echocardiogram / electrocardiogram); format: in vivo, human
Procedure: A patient, with a history of heart disease, is diagnosed with breast cancer. Due to an increased risk for heart failure, the patient is unable to receive the standard treatment regimen of doxorubicin, which is known to induce cardiotoxicity. Instead, the caregiver administers a co-formulation of doxorubicin (10 mg) and vitexin (100 mg). An echocardiogram is performed and blood flow rate is measured to determine if the therapy has a cardiotoxic effect in the patient.
A patient is diagnosed with liver cancer. […] The patient presents with a 20 ms QT prolongation. […] The patient is able to continue receiving treatment over several weeks after which a tissue biopsy is performed to confirm the liver cancer has been eradicated.
(§1) A patient is diagnosed with stage II lung cancer, and presents with bradycardia. Due to an increased risk for heart failure, the patient is unable to receive the standard treatment regimen of doxorubicin, which is known to affect cardiac contraction and induce bradycardia. Instead, the caregiver administers a co-formulation of doxorubicin (10 mg) and myricetin (100 mg). An electrocardiogram is used to monitor the patient's heart rate. […] The lung cancer is down-staged to stage 1, and the cancer is successfully removed with surgery.
as §1, with “myricetin (100 mg) 24 hours before administration” for “a co-formulation”, “(10” for “(10 mg) and myricetin (100”

TOPOIIα = target: T1, TOPOIIα (Homo sapiens, UniProt P11388); assay: kDNA decatenation assay; format: biochemical
T1 construct: purchased Inspiralis
T1 sequence (P11388 whole entry): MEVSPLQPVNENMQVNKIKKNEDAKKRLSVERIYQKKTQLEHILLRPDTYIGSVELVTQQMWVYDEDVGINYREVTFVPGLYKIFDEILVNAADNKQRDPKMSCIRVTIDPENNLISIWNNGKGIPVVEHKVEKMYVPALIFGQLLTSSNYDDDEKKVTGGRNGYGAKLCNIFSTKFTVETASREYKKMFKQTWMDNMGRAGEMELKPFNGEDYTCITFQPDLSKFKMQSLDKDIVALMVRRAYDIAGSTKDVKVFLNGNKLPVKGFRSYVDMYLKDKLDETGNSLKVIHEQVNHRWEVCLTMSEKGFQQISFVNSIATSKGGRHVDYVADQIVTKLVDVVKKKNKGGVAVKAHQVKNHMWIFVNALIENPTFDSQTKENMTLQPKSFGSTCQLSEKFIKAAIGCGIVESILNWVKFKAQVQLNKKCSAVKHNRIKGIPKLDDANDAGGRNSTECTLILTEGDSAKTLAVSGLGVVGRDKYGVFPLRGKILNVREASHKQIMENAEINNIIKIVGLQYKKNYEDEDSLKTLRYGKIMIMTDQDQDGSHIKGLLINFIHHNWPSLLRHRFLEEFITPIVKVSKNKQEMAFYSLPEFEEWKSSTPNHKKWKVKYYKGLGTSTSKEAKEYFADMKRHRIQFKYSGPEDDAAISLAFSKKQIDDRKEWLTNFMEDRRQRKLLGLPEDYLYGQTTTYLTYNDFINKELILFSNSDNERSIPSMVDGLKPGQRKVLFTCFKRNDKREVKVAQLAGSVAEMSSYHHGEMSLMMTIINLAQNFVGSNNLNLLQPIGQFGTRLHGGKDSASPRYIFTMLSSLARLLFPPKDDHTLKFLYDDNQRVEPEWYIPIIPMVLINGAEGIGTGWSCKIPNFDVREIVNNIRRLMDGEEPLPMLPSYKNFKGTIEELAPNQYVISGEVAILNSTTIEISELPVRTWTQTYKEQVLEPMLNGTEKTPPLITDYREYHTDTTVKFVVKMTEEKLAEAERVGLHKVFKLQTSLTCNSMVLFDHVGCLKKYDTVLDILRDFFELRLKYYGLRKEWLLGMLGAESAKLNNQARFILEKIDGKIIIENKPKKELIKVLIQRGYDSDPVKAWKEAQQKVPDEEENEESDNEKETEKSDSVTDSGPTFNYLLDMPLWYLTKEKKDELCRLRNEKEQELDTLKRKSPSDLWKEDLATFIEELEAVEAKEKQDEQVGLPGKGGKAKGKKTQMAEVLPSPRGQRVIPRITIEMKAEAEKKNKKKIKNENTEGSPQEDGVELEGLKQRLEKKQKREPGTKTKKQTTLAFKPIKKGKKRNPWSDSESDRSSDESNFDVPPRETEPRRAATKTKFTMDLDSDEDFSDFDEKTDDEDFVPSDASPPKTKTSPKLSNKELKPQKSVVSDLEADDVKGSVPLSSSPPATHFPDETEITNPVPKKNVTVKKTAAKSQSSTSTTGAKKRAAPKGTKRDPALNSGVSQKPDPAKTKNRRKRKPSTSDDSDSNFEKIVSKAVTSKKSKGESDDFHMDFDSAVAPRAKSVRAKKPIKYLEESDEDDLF

TOPOIIβ = target: T2, TOPOIIβ (Homo sapiens, UniProt Q02880); assay: kDNA decatenation assay; format: biochemical
T2 construct: purchased Inspiralis
T2 sequence (Q02880 whole entry): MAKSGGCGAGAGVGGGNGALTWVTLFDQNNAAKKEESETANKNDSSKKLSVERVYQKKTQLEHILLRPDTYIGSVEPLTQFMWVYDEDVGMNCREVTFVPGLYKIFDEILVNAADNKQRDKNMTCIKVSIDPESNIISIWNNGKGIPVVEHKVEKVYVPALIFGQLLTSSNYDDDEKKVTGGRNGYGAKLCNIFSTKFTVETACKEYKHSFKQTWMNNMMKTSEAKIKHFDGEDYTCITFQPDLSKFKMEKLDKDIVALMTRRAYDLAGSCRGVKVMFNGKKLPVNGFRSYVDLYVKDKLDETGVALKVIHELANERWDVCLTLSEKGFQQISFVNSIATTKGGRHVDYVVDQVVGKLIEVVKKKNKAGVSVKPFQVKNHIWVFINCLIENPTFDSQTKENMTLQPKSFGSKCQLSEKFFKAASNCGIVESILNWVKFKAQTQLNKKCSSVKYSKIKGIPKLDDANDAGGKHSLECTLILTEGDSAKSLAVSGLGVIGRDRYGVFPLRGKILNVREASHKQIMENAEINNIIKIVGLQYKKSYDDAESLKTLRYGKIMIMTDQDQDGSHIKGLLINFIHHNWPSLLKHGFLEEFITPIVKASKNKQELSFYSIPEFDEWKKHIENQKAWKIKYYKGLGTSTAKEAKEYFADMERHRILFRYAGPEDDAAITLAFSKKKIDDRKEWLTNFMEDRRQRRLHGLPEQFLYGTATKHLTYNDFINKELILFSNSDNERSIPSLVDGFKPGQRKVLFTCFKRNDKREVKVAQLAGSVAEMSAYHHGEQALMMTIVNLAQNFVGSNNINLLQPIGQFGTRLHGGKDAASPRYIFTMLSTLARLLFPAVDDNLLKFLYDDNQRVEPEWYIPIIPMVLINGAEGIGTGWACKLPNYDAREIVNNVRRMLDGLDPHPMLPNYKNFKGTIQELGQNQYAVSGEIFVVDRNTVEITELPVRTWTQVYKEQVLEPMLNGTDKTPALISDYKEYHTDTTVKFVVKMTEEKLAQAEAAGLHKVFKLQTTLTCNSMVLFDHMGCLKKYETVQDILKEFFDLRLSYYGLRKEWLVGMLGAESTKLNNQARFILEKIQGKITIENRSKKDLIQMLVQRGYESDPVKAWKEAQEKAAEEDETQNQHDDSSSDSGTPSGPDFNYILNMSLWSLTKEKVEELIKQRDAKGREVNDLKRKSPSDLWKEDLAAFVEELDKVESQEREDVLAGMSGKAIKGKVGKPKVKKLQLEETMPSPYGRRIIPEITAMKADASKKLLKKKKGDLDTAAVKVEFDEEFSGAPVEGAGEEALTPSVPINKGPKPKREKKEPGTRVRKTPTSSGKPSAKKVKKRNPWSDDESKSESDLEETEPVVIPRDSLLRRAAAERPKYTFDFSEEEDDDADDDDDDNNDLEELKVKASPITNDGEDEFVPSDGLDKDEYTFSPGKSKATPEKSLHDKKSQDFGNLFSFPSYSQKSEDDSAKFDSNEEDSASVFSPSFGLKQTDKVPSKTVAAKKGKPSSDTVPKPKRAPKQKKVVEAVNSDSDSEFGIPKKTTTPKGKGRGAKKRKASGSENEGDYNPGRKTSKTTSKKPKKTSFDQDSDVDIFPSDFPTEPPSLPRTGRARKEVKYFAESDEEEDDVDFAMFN

[7] = tested on: TOPOII enzymes (TOPOIIα and TOPOIIβ); assay: kDNA decatenation assay, TOPOIIα and TOPOIIβ jointly; format: biochemical; settings: discussion of Table 1
Procedure: 200 ng of kinetoplast DNA (kDNA) was incubated with one enzymatic unit of TOPOIIα or TOPOIIβ enzyme (Inspiralis) and with various concentrations of MYR or DEX at 37° C. for 30 min. The reaction was then separated on 1% agarose gel for visualization of decatenated DNA (bottom band). The efficiency of catalytic inhibition was quantified by measuring the relative intensity of the band.

[8] = tested on: Doxorubicin treated human iPSC-derived cardiomyocytes; assay: iPSC-CM protection of MYR analogs against doxorubicin; format: cell-based; settings: discussion of Table 1
[9] = tested on: cardiomyocytes derived from human induced pluripotent stem cells; assay: Doxorubicin-induced mitochondrial toxicity (TMRM-negative cells), 48 hours; format: cell-based; settings: 1 μM doxorubicin, KAE 17 μM, AMB 0.76 μM, MES 10 μM, NAC 50 μM, Dex 160 μM, VIT 115 μM
Procedure: Following treatment, the samples were incubated with a tetramethylrhodamine methyl ester (TMRM) dye to indicate mitochondrial health, and a second dye to identify cell nuclei.

[10] = tested on: Human iPSC-derived cardiomyocytes; assay: Cytotoxicity of MYR analogs to cardiomyocytes; settings: for cytotoxicity / toxic effects to cardiomyocytes (in words): at or below 100 μM as stated

Compound	percentage of cell death vs doxorubicin in the absence of a protective agent [1]	decrease in apoptosis vs doxorubicin alone [2]	mitochondrial toxicity / protection (TMRM-positive cells) [3]	decrease in the number of active electrodes ([4]; 1 μM doxorubicin and 11.6 μM vitexin)	decrease in the number of active electrodes ([4]; 1 μM doxorubicin and 37 μM vitexin)	decrease in the number of active electrodes ([4]; 1 μM doxorubicin and 116 μM vitexin)	average number of active electrodes ([4]; 1 μM doxorubicin and 116 μM vitexin, 30 hours)	percentage of cell death vs doxorubicin in the absence of a protective agent (A549 cells (lung cancer))	beat period or field potential duration, as compared to control samples [5]	number of active electrodes relative to the mock-treated sample (in words) [6]	QT prolongation (in words) (patient; doxorubicin (5 mg/mL) given with the protective agent)	cardiac dysfunction in the patient (patient; protective agent 100 mg co-formulated with, or 24 hours before, doxorubicin 10 mg)	TOPOIIα Inhibition (TOPOIIα)	TOPOIIβ Inhibition (TOPOIIβ)	TOPOII (TOPOIIα and TOPOIIβ) inhibition (in words) [7]	cardioprotection (in words) [8]	decrease in mitochondrial toxicity vs doxorubicin alone [9]	Toxicity ([10]; 100 μM)	cytotoxicity / toxic effects to cardiomyocytes (in words) ([10]; listed as Kaempferol)	cytotoxicity / toxic effects to cardiomyocytes (in words) ([10]; listed as kaempferol)
O=c1cc(-c2ccc(O)cc2)oc2c([C@@H]3O[C@H](CO)[C@@H](O)[C@H](O)[C@H]3O)c(O)cc(O)c12 [vitexin]	no significant difference	at least 60%	improved long term mitochondrial protection	~50%	~25%	~0%	about 10 active electrodes	no significant difference	no appreciable difference	no observable decrease	no signs of QT prolongation	no indication of cardiac dysfunction								
O=c1c(O)c(-c2ccc(O)cc2)oc2cc(O)cc(O)c12 [Compound 7, 3,5,7,4′-tetrahydroxyflavone]	no significant difference							no significant difference		no observable decrease			−	−	did not exhibit any inhibitory effect	moderate level of cardioprotection	at least 60%	−	without some level of cytotoxicity at 100 μM	did not show toxic effects below 100 μM

— US20170224654A1, “PHARMACEUTICAL COMPOSITIONS AND METHODS FOR COUNTERING CHEMOTHERAPY INDUCED CARDIOTOXICITY” (Stem Cell Theranostics, Inc., priority 2016, published 2017)
